Experimental findings from patent publication US6365759B1, “Intermediate compounds for preparing macrocylcic analogs” (Eisai Co., Ltd., priority 1998, dated 2002) are described below.

For assay [1], the system named is LOX human melanoma tumor xenograft. Put plainly: LOX melanoma xenograft growth inhibition assay. It is filed as in vivo, mouse. The settings on record: FIG. 3. On the procedure: FIG. 3 is a graph showing the average tumor volume in microliters as a function of time (days) in a LOX melanoma xenograft growth inhibition assay. […] Paclitaxel and a vehicle control were used.
Many of the individually disclosed drugs were tested for in vitro and in vivo activity (see Table 1, below). Screening methods included a standard in vitro cell growth inhibition assay using DLD-1 human colon cancer cells (ATCC accession number CCL 221) in a 96-well microtiter plate format (Finlay, G. J. et al Analytical Biochemistry 139:272-277, 1984), a U937 (ATCC accession number CRL 1593) mitotic block reversibility assay (described below), and in some cases, a LOX human melanoma tumor xenograft in vivo growth inhibition assay (see Table 1). Chemical stability to esterase degradation was also examined.

Assay [2] concerns DLD-1 human colon cancer cells. Put plainly: in vitro cell growth inhibition assay using DLD-1 cells. The assay is classed as cell-based.
Assay [3] concerns U937 human histiocytic lymphoma cells. Put plainly: U937 Mitotic Block Reversibility Assay. It is filed as cell-based.

Read-outs that look alike come from different tables or passages of the source.

`C=C1CC2CCC34CC5OC6C(O3)C3OC(CCC3O[C@H]6C5O4)CC(=O)CC3C(CC4OC(CCC1O2)CC(C)C4=C)OC(CC(O)CN)C3OC` (stereo partly drawn) [Compound B1939]: the “antitumor activity (average tumor volume over time)” value in assay [1] is recorded as “antitumor activity”. Moreover, the IC50 in assay [2] (Homo sapiens, DLD-1, read-out: DLD-1 mean IC50) came out at 19.3 nM. In assay [3], the “Complete Mitotic Block 0 hour” value stood at 12 nM, the “Complete Mitotic Block 10 hour” value came to 12 nM, the “Reversibility Ratio” value was found to be 1.0 and the “minimum concentration required for complete mitotic block at 0 hour” value was 10 nM. In assay [3], the “minimum concentration required for complete mitotic block at 10 hour” value was 10 nM, the reversibility ratio is 1 and the “viability of cells at 5 days” value is recorded as “drops to very low levels”.
As for `C=C1CC2CCC34CC5OC6C(OC7CCC(CC(=O)CC8C(CC9OC(CCC1O2)CC(C)C9=C)OC(CC(O)CNC(C)C)C8OC)OC7C6O3)C5O4` (stereo not drawn) [Compound B2330], in assay [2] (read-out: DLD-1 mean IC50), the IC50 came to 4.4 nM. Further, in assay [3], the “Complete Mitotic Block 0 hour” value was found to be 7 nM, the “Complete Mitotic Block 10 hour” value was found to be 7 nM and the “Reversibility Ratio” value was 1.0.
Take `C=C1C[C@@H]2CC[C@@]34C[C@H]5O[C@H]6[C@@H](O3)[C@H]3O[C@H](CC[C@@H]3O[C@@H]6[C@H]5O4)CC(=O)C[C@@H]3[C@@H](OC)[C@@H](C[C@H](O)CNC)O[C@H]3C[C@H]3O[C@@H](CC[C@@H]1O2)C[C@@H](C)C3=C` [Compound B2336]: the IC50 in assay [2] (read-out: DLD-1 mean IC50) was determined as 3.33 nM. For the same compound, in assay [3], the “Complete Mitotic Block 0 hour” value came to 10 nM, the “Complete Mitotic Block 10 hour” value amounted to 10 nM and the “Reversibility Ratio” value is 1.0.
In the case of `C=C1CC2CCC34CC5OC6C(OC7CCC(CC(=O)CC8C(CC9OC(CCC1O2)CC(C)C9=C)OC(CC(O)CNC(C)(C)C)C8OC)OC7C6O3)C5O4` (stereo not drawn) [Compound B2339], in assay [2] (read-out: DLD-1 mean IC50), the IC50 was found to be 4.3 nM. Further, in assay [3], the “Complete Mitotic Block 0 hour” value is listed as 3 nM, the “Complete Mitotic Block 10 hour” value was 3 nM and the “Reversibility Ratio” value is 1.0.
On to `C=C1CC2CCC34CC5OC6C(OC7CCC(CC(=O)CC8C(CC9OC(CCC1O2)CC(C)C9=C)OC(CC(O)CNCCO)C8OC)OC7C6O3)C5O4` (stereo not drawn) [Compound B2417], for which the IC50 in assay [2] (read-out: DLD-1 mean IC50) was 12.7 nM. For the same compound, in assay [3], the “Complete Mitotic Block 0 hour” value came to 10 nM, the “Complete Mitotic Block 10 hour” value came out at 10 nM and the “Reversibility Ratio” value was 1.0.
Turning to `C=C1CC2CCC34CC5OC6C(OC7CCC(CC(=O)CC8C(CC9OC(CCC1O2)CC(C)C9=C)OC(CC(O)CN1CCNCC1)C8OC)OC7C6O3)C5O4` (stereo not drawn) [Compound B2418], the IC50 in assay [2] (read-out: DLD-1 mean IC50) amounted to 3.63 nM. In assay [3], the “Complete Mitotic Block 0 hour” value was 10 nM, the “Complete Mitotic Block 10 hour” value was 10 nM and the “Reversibility Ratio” value was determined as 1.0.
Turning to `C=C1CC2CCC34CC5OC6C(OC7CCC(CC(=O)CC8C(CC9OC(CCC1O2)CC(C)C9=C)OC(CC(O)CN(CCO)CCO)C8OC)OC7C6O3)C5O4` (stereo not drawn) [Compound B2489], the IC50 in assay [2] (read-out: DLD-1 mean IC50) stood at 14.7 nM. Besides, in assay [3], the “Complete Mitotic Block 0 hour” value was determined as 10 nM, the “Complete Mitotic Block 10 hour” value amounted to 10 nM and the “Reversibility Ratio” value worked out at 1.0.
In the case of `C=C1CC2CCC34CC5OC6C(OC7CCC(CC(=O)CC8C(CC9OC(CCC1O2)CC(C)C9=C)OC(CC(O)CNC(CO)CO)C8OC)OC7C6O3)C5O4` (stereo not drawn) [Compound B2490], in assay [2] (read-out: DLD-1 mean IC50), the IC50 came to 35.7 nM. In addition, in assay [3], the “Complete Mitotic Block 0 hour” value is listed as 100 nM, the “Complete Mitotic Block 10 hour” value was 100 nM and the “Reversibility Ratio” value worked out at 1.0.
Consider `C=C1CC2CCC34CC5OC6C(OC7CCC(CC(=O)CC8C(CC9OC(CCC1O2)CC(C)C9=C)OC(CC(O)CNCc1ccccc1)C8OC)OC7C6O3)C5O4` (stereo not drawn) [Compound B2491], for which the IC50 in assay [2] (read-out: DLD-1 mean IC50) is 0.92 nM. Further, in assay [3], the “Complete Mitotic Block 0 hour” value amounted to 2 nM, the “Complete Mitotic Block 10 hour” value came to 10 nM and the “Reversibility Ratio” value was found to be 6.7.
For `C=C1CC2CCC34CC5OC6C(OC7CCC(CC(=O)CC8C(CC9OC(CCC1O2)CC(C)C9=C)OC(CC(O)CN1CCCCC1)C8OC)OC7C6O3)C5O4` (stereo not drawn) [ER803834] the same measures were 0.47 nM, 1 nM, 10 nM and 10.0.
For `C=C1CC2CCC34CC5OC6C(OC7CCC(CC(=O)CC8C(CC9OC(CCC1O2)CC(C)C9=C)OC(CC(O)CN1CCCC1)C8OC)OC7C6O3)C5O4` (stereo not drawn) [ER803835], in that order: 15.3 nM, 10 nM, 10 nM and 1.0.
For `C=C1CC2CCC34CC5OC6C(OC7CCC(CC(=O)CC8C(CC9OC(CCC1O2)CC(C)C9=C)OC(CC(O)CN1CC[C@@H](O)C1)C8OC)OC7C6O3)C5O4` (stereo partly drawn) [ER803836] the same measures were 1.97 nM, 3 nM, 10 nM and 3.3.
Turning to `C=C1CC2CCC34CC5OC6C(OC7CCC(CC(=O)CC8C(CC9OC(CCC1O2)CC(C)C9=C)OC(CC(O)CN1CCCCCC1)C8OC)OC7C6O3)C5O4` (stereo not drawn) [ER803843], the IC50 in assay [2] (read-out: DLD-1 mean IC50) was found to be 0.49 nM. In assay [3], the “Complete Mitotic Block 0 hour” value is 1 nM, the “Complete Mitotic Block 10 hour” value is reported as 10 nM and the “Reversibility Ratio” value turned out to be 10.0.
For `C=C1CC2CCC34CC5OC6C(OC7CCC(CC(=O)CC8C(CC9OC(CCC1O2)CC(C)C9=C)OC(CC(O)CNCc1ccc(OC)cc1)C8OC)OC7C6O3)C5O4` (stereo not drawn) [ER803845], in that order: 1.5 nM, 3 nM, 10 nM and 3.3.
For `C=C1CC2CCC34CC5OC6C(OC7CCC(CC(=O)CC8C(CC9OC(CCC1O2)CC(C)C9=C)OC(CC(O)CNCCc1ccccc1)C8OC)OC7C6O3)C5O4` (stereo not drawn) [ER803846], in that order: 1.16 nM, 1 nM, 10 nM and 10.0.
As to `C=C1CC2CCC34CC5OC6C(OC7CCC(CC(=O)CC8C(CC9OC(CCC1O2)CC(C)C9=C)OC(CC(O)CN1CCC[C@H]1CO)C8OC)OC7C6O3)C5O4` (stereo partly drawn) [ER803851], the IC50 in assay [2] (read-out: DLD-1 mean IC50) was 3.33 nM. Further, in assay [3], the “Complete Mitotic Block 0 hour” value amounted to 3 nM, the “Complete Mitotic Block 10 hour” value worked out at 3 nM and the “Reversibility Ratio” value is reported as 1.0.
`C=C1CC2CCC34CC5OC6C(OC7CCC(CC(=O)CC8C(CC9OC(CCC1O2)CC(C)C9=C)OC(CC(O)CN1CCC[C@@H]1CO)C8OC)OC7C6O3)C5O4` (stereo partly drawn) [ER803852]: in assay [2] (read-out: DLD-1 mean IC50), the IC50 is 3.03 nM. In assay [3], the “Complete Mitotic Block 0 hour” value is 3 nM, the “Complete Mitotic Block 10 hour” value was found to be 10 nM and the “Reversibility Ratio” value is recorded as 3.3.
For `C=C1CC2CCC34CC5OC6C(OC7CCC(CC(=O)CC8C(CC9OC(CCC1O2)CC(C)C9=C)OC(CC(O)CN1CCOCC1)C8OC)OC7C6O3)C5O4` (stereo not drawn) [ER803868], the IC50 in assay [2] (read-out: DLD-1 mean IC50) stood at 0.43 nM. In assay [3], the “Complete Mitotic Block 0 hour” value is recorded as 3 nM, the “Complete Mitotic Block 10 hour” value came to 10 nM and the “Reversibility Ratio” value was determined as 3.3.
For the compound `C=C1CC2CCC34CC5OC6C(OC7CCC(CC(=O)CC8C(CC9OC(CCC1O2)CC(C)C9=C)OC(CC(O)CNCC)C8OC)OC7C6O3)C5O4` (stereo not drawn) [ER803869], the IC50 in assay [2] (read-out: DLD-1 mean IC50) stood at 4.13 nM. In assay [3], the “Complete Mitotic Block 0 hour” value amounted to 3 nM, the “Complete Mitotic Block 10 hour” value amounted to 3 nM and the “Reversibility Ratio” value is recorded as 1.0.
In the case of `C=C1CC2CCC34CC5OC6C(OC7CCC(CC(=O)CC8C(CC9OC(CCC1O2)CC(C)C9=C)OC(CC(O)Cn1ccnc1)C8OC)OC7C6O3)C5O4` (stereo not drawn) [ER803870], in assay [2] (read-out: DLD-1 mean IC50), the half-maximal inhibitory concentration (IC50) was found to be 1.27 nM. In assay [3], the “Complete Mitotic Block 0 hour” value is 3 nM, the “Complete Mitotic Block 10 hour” value is 30 nM and the “Reversibility Ratio” value is reported as 10.0.
For `C=C1CC2CCC34CC5OC6C(OC7CCC(CC(=O)CC8C(CC9OC(CCC1O2)CC(C)C9=C)OC(CC(O)CN(CC)CC)C8OC)OC7C6O3)C5O4` (stereo not drawn) [ER803883], in that order: 1.02 nM, 1 nM, 10 nM and 10.0.
For `C=C1CC2CCC34CC5OC6C(OC7CCC(CC(=O)CC8C(CC9OC(CCC1O2)CC(C)C9=C)OC(CC(O)CNCc1ccc(Cl)cc1)C8OC)OC7C6O3)C5O4` (stereo not drawn) [ER803884] the same measures were 0.59 nM, 1 nM, 10 nM and 10.0.

Broadly, the IC50 is the concentration that gives 50% inhibition.
